In patent US20100130585A1, “METHODS AND COMPOSITIONS FOR INVESTIGATION AND TREATMENT OF CANCER USING A G-PROTEIN COUPLED EICOSANOID RECEPTOR” (priority 2005, published 2010):
“Also recorded” adds a separate entry of the source.

Experiments:
5-LOX = experiment: Production of 5-oxoETE in PC3 cells measured by LC/MS; format: cell-based, human; settings: 10 micromolar, two hours at 37 degree C, control cells 11 picograms per ml
Experimental: We also measured the production of 5-oxoETE in PC3 prostate cancer cells by liquid chromatography/mass spectrometry “(LC/MS”) to assess whether prostate cancer cells constitutively produce 5-oxoETE as a survival factor. […] PC3 prostate cancer cells (2 million per plate) were plated in 6 ml RPMI medium in serum-free medium for 24 hours. On the next day cells were treated with 10 micromolar MK591 (a specific 5-LOX inhibitor) for two hours at 37 degree C., or cells were left untreated. The media were collected, eicosanoids extracted, and measured by LC/MS.

PC3 cells = experiment: Killing of PC3 cells by 5-LOX inhibitor; format: cell-based, human; settings: 10 micromolar
prostate cancer cells = settings: exogenous metabolite, previous work [7, 8, 17]; cited from earlier work

Row | SMILES | eicosanoids (5-oxoETE) in serum-free culture medium (5-LOX) | killing of PC3 cells (PC3 cells) | prevention of apoptosis triggered by 5-LOX inhibition (prostate cancer cells)
1 | CC(C)(C)Sc1c(CC(C)(C)C(=O)O)n(Cc2ccc(Cl)cc2)c2ccc(OCc3ccc4ccccc4n3)cc12 [MK591] | 0 picograms per ml | kills PC3 cells | –
2 | CCCCC/C=C\C/C=C\C/C=C\C=C\[C@@H](O)CCCC(=O)O [5-HETE, 5(S)-hydroxyeicosatetraenoic acid] | – | – | prevented
3 | CCCCC/C=C\C/C=C\C/C=C\C=C\C(=O)CCCC(=O)O [5-oxoETE, 5-oxoeicosatetraenoic acid] | – | – | prevented; also recorded: more effective
